Measured values: patent US20110223675A1, “DRUG RELEASE MEANS FROM LIPOSOMES AND METHOD FOR EVALUATING RELEASABILITY” (TERUMO KABUSHIKI KAISHA, priority 2008, published 2011)
Where a name gives a salt, the structure may show the parent alone.

Experiment: drug releasability test of liposomes in a shift reagent solution
Type: physicochemical
Protocol: After 1:10 dilution of the sample with a stop solution, the drug, not contained in the liposomes, was separated by ultracentrifugation to provide a sample solution. Separately, 100 μl of a VCR aqueous solution having a different concentration was taken out, to which 900 μl of water was added. Moreover, this solution was diluted with water at 1:10 to provide a reference solution for calibration curve. The sample solution and reference solution were subjected to quantitative determination under the HPLC conditions indicated before with respect to the VCR determination except that an injected amount was at 50 μl only in this determination method.
After dilution of the sample with a stop solution at 1:10, the drug, not contained in the liposomes, was separated by ultracentrifugation. 1 ml of a 0.1 mol/l dihydrogen sodium phosphate solution having a pH of 3.0 was added to and mixed with 1 ml of a supernatant of the sample obtained after the ultracentrifugation to provide a sample solution. Separately, 1 ml of a 0.1 mol/l dihydrogen sodium phosphate solution having a pH of 3.0 was added to and mixed with 1 ml of/a DXR solution having a different concentration to prepare a reference solution for calibration curve. The sample solution and reference solution were subjected to measurement under HPLC conditions indicated with respect to the DXR determination.
Release rate (%)=amount of released drug/total drug amount×100
Ammonium acetate was dissolved so as to make ammonium ion concentrations of 5, 20, 25, 50 and 100 mM and the pH of the solutions was adjusted to 7.0 by use of a 0.1 M sodium hydroxide test solution. Moreover, sodium chloride was added to the solutions so that an osmotic pressure thereof was made at 300 mOsm, thereby providing shift reagent solutions.
The liposomes shown in Preparatory Example 1 were diluted with the shift reagent solution at 1:10 and heated to 37° C. 2.5, 5, 10, 15 and 30 minutes after commencement of the heating, samples were taken out. It is to be noted that the samples were stored under ice cooling before use. The quantitative determination of released VCR was made according to the method described hereinbefore.
Ammonium acetate was dissolved so as to make an ammonium ion concentration of 50 mM, followed by controlling the pH of the solution at 4.0, 5.0, 6.0, 7.0 and 8.0 by use of a 1 M sodium hydroxide test solution. […]
The liposomes shown in Preparatory Example 1 were diluted with the shift reagent solution at 1:10 and heated at 37° C. […] The released VCR was quantitatively determined by the method set out hereinbefore. […]
The liposomes shown in Preparatory Example 1 were diluted with the shift reagent solution at 1:10 and heated at 37° C. […] The quantitative determination of the released VCR was made according to the method set out hereinbefore. […]

Compound | DXR releasability (250 mM ethylenediamine/phosphate buffer solution pH 7.4, 37° C., 0-4 hours) | VCR releasability versus pH of shift reagent solution (LIP1, 50 mM ammonium acetate, pH 4.0-8.0, 300 mOsm, 37° C.) | VCR release versus osmotic pressure of shift reagent solution (LIP1, 50 mM ammonium acetate, pH 7.0, 100-750 mOsm, 37° C.) | VCR release with amino compounds as shift reagent (LIP2, 50 mM 2-aminoethanol, ethylenediamine or diethylamine, pH 7.4, 37° C.)
COc1cccc2c1C(=O)c1c(O)c3c(c(O)c1C2=O)C[C@@](O)(C(=O)CO)C[C@@H]3O[C@H]1C[C@H](N)[C@H](O)[C@H](C)O1 [DXR, Doxorubicin hydrochloride] | could be released | – | – | –
CC[C@]1(O)C[C@H]2CN(CCc3c([nH]c4ccccc34)[C@@](C(=O)OC)(c3cc4c(cc3OC)N(C=O)[C@H]3[C@@](O)(C(=O)OC)[C@H](OC(C)=O)[C@]5(CC)C=CCN6CC[C@]43[C@@H]65)C2)C1 [VCR, Vincristine sulfate] | – | promoted with increasing pH | a smaller osmotic pressure of the shift reagent solution leads to more promoted release | can be released
